Assay [1] deals with RasGAP^FL (full-length RasGAP) GAP activity toward H-Ras. Description: In vitro GAP assay, single turnover fluorescence-based phosphate sensor. It is filed as biochemical, human. To be noted: 50 μM peptide, 25 nM RasGAP^FL, 0.8 μM GTP-H-Ras, 1 μM phosphate sensor, 20 mM Tris pH 8, 50 mM NaCl; first 10 min after Mg2+; n = 4 to 14, Mann-Whitney. An excerpt: Finally, to probe whether the conformational movements in the SH2-SH3-SH2 region nonetheless impact catalytic activity in vitro, we conducted GAP assays. […] Our SAXS data for RasGAP^232 may provide a basis for how this is achieved: by inducing local changes in 232 conformations upon peptide engagement. Therefore, we purified full-length RasGAP (residues 1–1047, termed RasGAP^FL, Fig. S2G) and assessed activity against purified H-Ras GTPase domain preloaded with GTP (residues 1–167, Fig. S2H) in a single turnover fluorescence-based phosphate sensor assay that monitors phosphate release in real time ([64]). We find that RasGAP^FL activates H-Ras, as expected (Fig. 6) ([61], [62]). […]
Figure 6 In vitro GAP assays.A, GAP assay for full-length RasGAP activation of GTP-loaded H-Ras. […] Initial rates calculated for each reaction using only the first 10 min after addition of Mg^2+, where the phosphate release rate was linear. […]
H-Ras was preloaded with GTP by mixing purified H-Ras^1-167 protein, 10 mM EDTA, and 10-fold excess GTP in 20 mM Tris pH 8, 100 mM NaCl for 1 h at room temperature. […] Fluorescence excitation and emission settings were 430 nm and 450 nm, respectively with a bandwidth of 10 nm, and readings were taken in 1-min intervals. […]

Assay [2] deals with T1, RasGAP^232 (p120RasGAP N-SH2, SH3, C-SH2, residues 174–444) (Homo sapiens, UniProt P20936, C236S/C261S/C372S/C402S).
T1 construct: (residues 174–444, termed RasGAP^232); hexahistidine (TEV-cleavable) (N, cleaved yes); made in house; host or cells: E. coli Rosetta (DE3)
T1 sequence (P20936 174-444 C236S/C261S/C372S/C402S): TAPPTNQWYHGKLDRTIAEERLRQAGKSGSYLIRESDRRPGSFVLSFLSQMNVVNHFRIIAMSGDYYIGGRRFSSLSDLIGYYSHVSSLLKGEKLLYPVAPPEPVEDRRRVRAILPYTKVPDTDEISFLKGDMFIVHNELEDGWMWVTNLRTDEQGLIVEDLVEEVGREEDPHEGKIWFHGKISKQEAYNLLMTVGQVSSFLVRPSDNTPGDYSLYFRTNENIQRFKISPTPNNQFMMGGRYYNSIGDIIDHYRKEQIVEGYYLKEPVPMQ
To be noted: ref ([50]), cited from earlier work. The text has this:
Table 1 Isothermal titration calorimetry measurements for p120RasGAP with phosphotyrosine-containing binding partners | column: Kd (μM); n; ΔH (kJ/mol); ΔS (J/mol∗K) || We expressed and purified the region of RasGAP encompassing both SH2 domains with a construct that includes the N-SH2, SH3, and C-SH2 domains (residues 174–444, termed RasGAP^232 ([50])) (Figs. 1A and S2A). Separately, we synthesized peptides containing both phosphotyrosine residues for EphB4 and Dok1 (Fig. 1C). Our previous isothermal titration calorimetry (ITC) study assessed the affinity of RasGAP^232 for doubly phosphorylated p190RhoGAP-A peptide and found a Kd of 10 ± 6 nM for tandem engagement of both phosphotyrosines by both SH2 domains ([50]). In our current study, titration of the dou ...

Data on two compounds can be found in article PMC10470053, “Diverse p120RasGAP interactions with doubly phosphorylated partners EphB4, p190RhoGAP, and Dok1” (The Journal of Biological Chemistry, 2023).

Square brackets hold non-standard residues; d marks the D form. Ends that are not written are not given here. Peptide text beside a SMILES is read from it. pY = N[C@@H](Cc1ccc(OP(=O)(O)O)cc1)C(=O)O

`CC[C@H](C)[C@H](NC(=O)[C@H](CCCNC(=N)N)NC(=O)[C@H](CC(C)C)NC(=O)[C@H](CO)NC(=O)[C@H](CC(=O)O)NC(=O)[C@H](CC(C)C)NC(=O)[C@@H]1CCCN1C(=O)[C@H](CCC(=O)O)NC(=O)[C@H](C)NC(=O)[C@H](Cc1ccc(OP(=O)(O)O)cc1)NC(=O)[C@H](CC(C)C)NC(=O)[C@H](C)NC(=O)[C@@H]1CCCN1C(=O)[C@@H]1CCCN1C(=O)[C@H](CO)NC(C)=O)C(=O)N[C@@H](C)C(=O)N1CCC[C@H]1C(=O)N[C@@H](CS)C(=O)N1CCC[C@H]1C(=O)N[C@@H](CO)C(=O)N[C@@H](CCC(N)=O)C(=O)N[C@@H](CC(=O)O)C(=O)N[C@@H](CO)C(=O)N[C@@H](CC(C)C)C(=O)N[C@@H](Cc1ccc(OP(=O)(O)O)cc1)C(=O)N[C@@H](CO)C(=O)N[C@@H](CC(=O)O)C(=O)N1CCC[C@H]1C(=O)N[C@@H](CC(C)C)C(=O)N[C@@H](CC(=O)O)C(=O)N[C@@H](CO)C(=O)N[C@H](C(N)=O)[C@@H](C)O` [pYpY Dok1] (Ac-SPPAL[pY]AEPLDSLRIAPCPSQDSL[pY]SDPLDST-NH2): in assay [1], the “effect of peptide on in vitro GAP activity (initial rate of phosphate release)” value is “do not impact GAP activity”.
What is called Kd is the free concentration of one partner at which half of the binding sites on the other are occupied at equilibrium, for simple one-to-one binding. For the compound “SD[pY]AEPMDAVVKPRNEEENI[pY]SVPH [pYpY p190RhoGAP-A, Doubly phosphorylated p190RhoGAP-A peptide (pY1087, pY1105)]”, the n in assay [2] (ITC stoichiometry) is reported as 0.6 ± 0.1. For the same compound, in assay [2] (ITC), the Kd was 10 ± 6 nM, the ΔH was -31.1 ± 4.78 kcal/mol and the ΔS is −281 ± 77 J/mol∗K. In addition, the “effect of peptide on in vitro GAP activity (initial rate of phosphate release)” value in assay [1] is “do not impact GAP activity”.
